Among the test systems are COLO 205 colon; SF-295 CNS; HT29 colon; HOP-62 NSCLC; HL-60(TB) leukemia; SK-OV-3 ovarian; CCRF-CEM leukemia; SR leukemia.
What all share (assay): growth of human tumour cells (NCI), 48 h

“And” between values parts separate entries of the source, which are not always exact repeats. Equal entries are not always repeated.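 Interpolation was linear, between the two tested concentrations surrounding the appropriate level; five concentrations were tested over 48 hours in 96-well plates. GI50 = concentration required for 50% inhibition of growth. TGI denotes the concentration required for complete inhibition of growth.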 Where only a bound is given, the exact number is not on record here.

Consider `CC1=C(C(=O)Nc2ccc([N+](=O)[O-])cc2)C(c2ccco2)C(C(=O)Nc2ccc([N+](=O)[O-])cc2)=C(C)N1`, for which the TGI with COLO 205 colon was 51.1 µM; with SF-295 CNS it was greater than 100 µM; in the assay on HT29 colon it was greater than 100 µM; with HOP-62 NSCLC it was 71.1 µM; with HL-60(TB) leukemia, 26.5 µM; with SK-OV-3 ovarian, 62.9 µM. The compound also had a TGI with CCRF-CEM leukemia of 51.2 µM.
As to `Cc1cc(Br)cc(C)c1NC(=O)C(=O)CC(=O)c1sc(-n2nc(-c3ccccc3)cc2-c2ccccc2)nc1C`, the TGI in the assay on COLO 205 colon, in the assay with SF-295 CNS, in the assay with SR leukemia, in the assay on HT29 colon, in the assay on HOP-62 NSCLC and with HL-60(TB) leukemia was greater than 100 µM each time. The TGI with SK-OV-3 ovarian and in the assay on CCRF-CEM leukemia was greater than 100 µM each time.
Take `O/N=C1/C(=C/c2ccc(F)cc2)CCCC1C(NO)c1ccc(F)cc1` (stereo not given): the TGI is greater than 100 µM in the assay on COLO 205 colon; greater than 100 µM in the assay on SF-295 CNS; 45.2 µM with HT29 colon; greater than 100 µM with HOP-62 NSCLC; 49.1 µM with HL-60(TB) leukemia; greater than 100 µM in the assay on SK-OV-3 ovarian. Further, the TGI with CCRF-CEM leukemia was greater than 100 µM.
For the compound `Cn1ncc2cc3c(Nc4ccc(Cl)cc4)cccc3nc21`, the TGI was 28.1 µM with COLO 205 colon; 35.3 µM in the assay with SF-295 CNS; 53 µM in the assay with HOP-62 NSCLC; 43.4 µM in the assay on HL-60(TB) leukemia; greater than 100 µM in the assay on SK-OV-3 ovarian; 92.7 µM in the assay on CCRF-CEM leukemia.
Take `CCCCCCC(=O)C/C(CCC(=O)N(Cc1ccccc1)Cc1ccccc1)=N\Nc1ccc([N+](=O)[O-])cc1[N+](=O)[O-]`: the TGI in the assay on COLO 205 colon, in the assay with SF-295 CNS, in the assay on HT29 colon, with HOP-62 NSCLC, in the assay on HL-60(TB) leukemia and in the assay on SK-OV-3 ovarian was greater than 100 µM in each case. For the same compound, in the assay with CCRF-CEM leukemia, the TGI turned out to be 56.1 µM.
In the case of `O=C1C2=C(c3ccccc31)C(c1ccc(Cl)cc1)N1C(=O)CCSC1=N2` (stereo not given), the TGI with COLO 205 colon, in the assay with SF-295 CNS, with HT29 colon, in the assay with HOP-62 NSCLC, in the assay on HL-60(TB) leukemia and in the assay with SK-OV-3 ovarian was greater than 100 µM in each case. This compound also registered a TGI with CCRF-CEM leukemia greater than 100 µM.
Consider `C=C(c1ccccc1N)[C@@]1(O)C[C@H](/C(=C\C)CO)C[C@@H]1NCc1ccccc1`, for which the TGI with COLO 205 colon was 33 µM; in the assay on SF-295 CNS it was 30.5 µM; in the assay with HT29 colon, 32.7 µM; with HOP-62 NSCLC it was greater than 100 µM; in the assay with HL-60(TB) leukemia it was 29.9 µM; in the assay with SK-OV-3 ovarian, 73.7 µM. In addition, the TGI in the assay on CCRF-CEM leukemia is 57.2 µM.
As for `S=c1[nH]nc(COc2ccc(Cl)cc2)o1`, the TGI in the assay with COLO 205 colon, in the assay on SF-295 CNS, in the assay on HT29 colon, in the assay with HOP-62 NSCLC, in the assay on HL-60(TB) leukemia and in the assay with SK-OV-3 ovarian was greater than 100 µM each time. Moreover, in the assay with CCRF-CEM leukemia, the TGI is greater than 100 µM.
Turning to `CC(Cl)(/C=C/Cl)C(Cl)/C=C/C(Cl)(CCl)CBr` (stereo not given), the TGI in the assay on COLO 205 colon came out at 4.94 µM; in the assay on SF-295 CNS, 20.2 µM; in the assay on SR leukemia it was 2.07 µM; in the assay on HT29 colon, 4.66 µM; in the assay on HOP-62 NSCLC it was 42.8 µM; with HL-60(TB) leukemia, 5.32 µM. The TGI in the assay on SK-OV-3 ovarian was 30.9 µM; in the assay with CCRF-CEM leukemia, 11.3 µM.
On to `CC(C)=CC(=O)CC(=O)C(=O)Nc1ccc(C)c(C)c1`, for which the TGI in the assay with SF-295 CNS, in the assay with SR leukemia, in the assay on HT29 colon, with HL-60(TB) leukemia, with SK-OV-3 ovarian and in the assay with CCRF-CEM leukemia was greater than 100 µM each time.
As for `Cn1nc(-c2ccccc2NC(=O)C(F)(F)F)c(=O)n(C)c1=S`, the TGI in the assay on SF-295 CNS is greater than 100 µM; with SR leukemia it was 53.7 µM; in the assay with HT29 colon it was 53.8 µM; with HOP-62 NSCLC, greater than 100 µM; in the assay on SK-OV-3 ovarian, greater than 100 µM; with CCRF-CEM leukemia, greater than 100 µM.
In the case of `CC1=C(C(=O)Nc2ccccc2)C(c2ccc3c(c2)OCO3)C(C(=O)Nc2ccccc2)=C(C)N1`, the TGI in the assay on COLO 205 colon is greater than 100 µM; with SF-295 CNS, greater than 100 µM; with HT29 colon it was greater than 100 µM; in the assay on HOP-62 NSCLC it was greater than 100 µM; with HL-60(TB) leukemia, 42.4 µM; in the assay on SK-OV-3 ovarian, greater than 100 µM. This compound also showed a TGI in the assay with CCRF-CEM leukemia of 41 µM.
On to `CCOC(=O)CCC(NC(=O)c1ccc(N=Cc2nc3cc(C(F)(F)F)ccc3nc2-c2ccccc2)cc1)C(=O)OCC` (stereo not given), for which the GI50 with COLO 205 colon was greater than 100 µM; in the assay with SF-295 CNS it was 71.9 µM; with SR leukemia, greater than 100 µM; in the assay on HT29 colon, greater than 100 µM; in the assay with HOP-62 NSCLC it was 16.3 µM; in the assay with HL-60(TB) leukemia, 65.3 µM. Moreover, the values for the GI50 with SK-OV-3 ovarian and with CCRF-CEM leukemia were 14.1 µM and greater than 100 µM, respectively. Besides, the TGI with COLO 205 colon was 50 µM and > 100 µM; in the assay on SF-295 CNS it was 31.8 µM and > 100 µM; in the assay on SR leukemia, greater than 100 µM; in the assay on HT29 colon, greater than 100 µM; in the assay on HOP-62 NSCLC, 50 µM and 40.6 µM; in the assay on HL-60(TB) leukemia, 50 µM and > 100 µM. For the same compound, the TGI in the assay with SK-OV-3 ovarian is 23.2 µM and 38.2 µM; in the assay with CCRF-CEM leukemia, greater than 100 µM.
On to `CC(=O)[CH-]C(=O)c1ccccc1.CC(=O)[CH-]C(=O)c1ccccc1.CCN(CC)CC[O-].CCN(CC)CC[O-].Cl.[Ti+4]`, for which the GI50 in the assay on SF-295 CNS was 37.9 µM; in the assay on HT29 colon, 24 µM; in the assay with HOP-62 NSCLC, 37.4 µM; with HL-60(TB) leukemia it was 19.6 µM; with SK-OV-3 ovarian, 32.6 µM. Also, the TGI is 86.7 µM in the assay on SF-295 CNS; 59.6 µM in the assay on HT29 colon; greater than 100 µM with HOP-62 NSCLC; 61.2 µM in the assay with HL-60(TB) leukemia; greater than 100 µM with SK-OV-3 ovarian.
With `NNC(=O)/C(=C/c1cccc([N+](=O)[O-])c1)NC(=O)c1ccccc1`, the TGI with COLO 205 colon, with SF-295 CNS, with SR leukemia, with HT29 colon, with HOP-62 NSCLC and with HL-60(TB) leukemia was greater than 100 µM throughout. The TGI in the assay on SK-OV-3 ovarian and with CCRF-CEM leukemia was greater than 100 µM throughout.
Consider `CNC(=O)OCc1nc(SC(C)C)n(C)c1COC(=O)NC`, for which the TGI in the assay with COLO 205 colon, with SF-295 CNS, in the assay on SR leukemia, with HT29 colon, in the assay with HOP-62 NSCLC and in the assay on HL-60(TB) leukemia was greater than 100 µM in each case. For the same compound, the TGI is greater than 100 µM in the assay on SK-OV-3 ovarian and greater than 88 µM with CCRF-CEM leukemia.

(Values after PubChem BioAssay (NCI).)
